Reference: the NIST ThermoML archive (doi:10.1007/s10765-005-5566-6)
Numbers after ± are expanded uncertainties.

Settings: Gas, Hot wire method

O=C=O [carbon dioxide]
thermal conductivity (298.89 K, 6100 kPa): 0.03312 ± 0.00059 W/m/K | thermal conductivity (299.02 K, 5760 kPa): 0.02896 ± 0.00053 W/m/K | thermal conductivity (299.19 K, 5400 kPa): 0.02633 ± 0.00048 W/m/K | thermal conductivity (299.31 K, 5035 kPa): 0.02441 ± 0.00045 W/m/K | thermal conductivity (299.5 K, 4555 kPa): 0.02268 ± 0.00042 W/m/K | thermal conductivity (299.6 K, 3980 kPa): 0.02109 ± 0.00039 W/m/K | thermal conductivity (299.73 K, 3285 kPa): 0.01968 ± 0.00037 W/m/K | thermal conductivity (299.85 K, 2555 kPa): 0.01861 ± 0.00035 W/m/K | thermal conductivity (300.06 K, 1702 kPa): 0.01777 ± 0.00034 W/m/K | thermal conductivity (300.37 K, 714 kPa): 0.01712 ± 0.00033 W/m/K | thermal conductivity (302.67 K, 6635 kPa): 0.037 ± 0.00066 W/m/K | thermal conductivity (302.77 K, 6400 kPa): 0.03309 ± 0.00059 W/m/K | thermal conductivity (302.8 K, 6025 kPa): 0.02905 ± 0.00053 W/m/K | thermal conductivity (302.86 K, 5675 kPa): 0.02694 ± 0.00049 W/m/K | thermal conductivity (302.92 K, 5290 kPa): 0.02471 ± 0.00045 W/m/K | thermal conductivity (302.97 K, 4870 kPa): 0.02339 ± 0.00043 W/m/K | thermal conductivity (303.08 K, 4340 kPa): 0.02178 ± 0.0004 W/m/K | thermal conductivity (303.22 K, 3765 kPa): 0.02053 ± 0.00038 W/m/K | thermal conductivity (303.51 K, 3160 kPa): 0.01961 ± 0.00037 W/m/K | thermal conductivity (303.81 K, 2415 kPa): 0.01872 ± 0.00035 W/m/K | thermal conductivity (303.99 K, 1612 kPa): 0.01795 ± 0.00034 W/m/K | thermal conductivity (304.21 K, 724 kPa): 0.01741 ± 0.00033 W/m/K | thermal conductivity (324.87 K, 7960 kPa): 0.03214 ± 0.00058 W/m/K | thermal conductivity (324.9 K, 7750 kPa): 0.03118 ± 0.00056 W/m/K | thermal conductivity (324.92 K, 7440 kPa): 0.02954 ± 0.00054 W/m/K | thermal conductivity (324.95 K, 5960 kPa): 0.02501 ± 0.00046 W/m/K | thermal conductivity (325.01 K, 6900 kPa): 0.02771 ± 0.0005 W/m/K | thermal conductivity (325.04 K, 6760 kPa): 0.02716 ± 0.0005 W/m/K | thermal conductivity (325.1 K, 5575 kPa): 0.02434 ± 0.00045 W/m/K | thermal conductivity (325.12 K, 6360 kPa): 0.02611 ± 0.00048 W/m/K | thermal conductivity (325.28 K, 5060 kPa): 0.02323 ± 0.00043 W/m/K | thermal conductivity (325.42 K, 4605 kPa): 0.02254 ± 0.00042 W/m/K | thermal conductivity (325.48 K, 4040 kPa): 0.02182 ± 0.0004 W/m/K | thermal conductivity (325.64 K, 3500 kPa): 0.02126 ± 0.0004 W/m/K | thermal conductivity (325.81 K, 2880 kPa): 0.02052 ± 0.00038 W/m/K | thermal conductivity (325.93 K, 2218 kPa): 0.02003 ± 0.00037 W/m/K | thermal conductivity (326.03 K, 1514 kPa): 0.01958 ± 0.00037 W/m/K | thermal conductivity (326.17 K, 684 kPa): 0.01921 ± 0.00036 W/m/K | thermal conductivity (326.26 K, 497 kPa): 0.0191 ± 0.00036 W/m/K | thermal conductivity (350.83 K, 9985 kPa): 0.03324 ± 0.0006 W/m/K | thermal conductivity (350.89 K, 8840 kPa): 0.03029 ± 0.00055 W/m/K | thermal conductivity (350.96 K, 7540 kPa): 0.02768 ± 0.0005 W/m/K | thermal conductivity (351.12 K, 6040 kPa): 0.02551 ± 0.00047 W/m/K | thermal conductivity (351.44 K, 4275 kPa): 0.02351 ± 0.00043 W/m/K | thermal conductivity (351.82 K, 2214 kPa): 0.02197 ± 0.0004 W/m/K | thermal conductivity (351.87 K, 1820 kPa): 0.02181 ± 0.0004 W/m/K | thermal conductivity (351.91 K, 1420 kPa): 0.02153 ± 0.0004 W/m/K | thermal conductivity (352.1 K, 994 kPa): 0.02141 ± 0.00039 W/m/K | thermal conductivity (352.23 K, 572 kPa): 0.02136 ± 0.00039 W/m/K | thermal conductivity (375.68 K, 14930 kPa): 0.04175 ± 0.00075 W/m/K | thermal conductivity (375.71 K, 13880 kPa): 0.03888 ± 0.0007 W/m/K | thermal conductivity (375.75 K, 12560 kPa): 0.03615 ± 0.00065 W/m/K | thermal conductivity (375.8 K, 11100 kPa): 0.03322 ± 0.0006 W/m/K | thermal conductivity (375.85 K, 9640 kPa): 0.03079 ± 0.00056 W/m/K | thermal conductivity (375.91 K, 8060 kPa): 0.02887 ± 0.00052 W/m/K | thermal conductivity (376.01 K, 6260 kPa): 0.02673 ± 0.00049 W/m/K | thermal conductivity (376.11 K, 4240 kPa): 0.02504 ± 0.00046 W/m/K | thermal conductivity (376.28 K, 2004 kPa): 0.02377 ± 0.00043 W/m/K | thermal conductivity (376.51 K, 1015 kPa): 0.02346 ± 0.00043 W/m/K | thermal conductivity (400.85 K, 15010 kPa): 0.03843 ± 0.00069 W/m/K | thermal conductivity (400.93 K, 13550 kPa): 0.03623 ± 0.00066 W/m/K | thermal conductivity (400.98 K, 11950 kPa): 0.03389 ± 0.00061 W/m/K | thermal conductivity (401.03 K, 10340 kPa): 0.03194 ± 0.00058 W/m/K | thermal conductivity (401.15 K, 8495 kPa): 0.03004 ± 0.00054 W/m/K | thermal conductivity (401.3 K, 6660 kPa): 0.0285 ± 0.00052 W/m/K | thermal conductivity (401.42 K, 4600 kPa): 0.02712 ± 0.00049 W/m/K | thermal conductivity (401.6 K, 2382 kPa): 0.02597 ± 0.00047 W/m/K | thermal conductivity (401.66 K, 1690 kPa): 0.02584 ± 0.00047 W/m/K | thermal conductivity (401.74 K, 975 kPa): 0.02566 ± 0.00046 W/m/K | thermal conductivity (427.12 K, 12000 kPa): 0.03429 ± 0.00062 W/m/K | thermal conductivity (427.23 K, 9898 kPa): 0.0325 ± 0.00059 W/m/K | thermal conductivity (427.38 K, 8240 kPa): 0.03127 ± 0.00056 W/m/K | thermal conductivity (427.51 K, 6160 kPa): 0.02966 ± 0.00053 W/m/K | thermal conductivity (427.67 K, 3970 kPa): 0.02879 ± 0.00052 W/m/K | thermal conductivity (427.7 K, 3020 kPa): 0.02833 ± 0.00051 W/m/K | thermal conductivity (427.95 K, 2050 kPa): 0.02812 ± 0.0005 W/m/K | thermal conductivity (428.05 K, 1040 kPa): 0.02797 ± 0.0005 W/m/K
